In PubChem BioAssay AID248 (DTP/NCI, 2004):
Several values for one entry are separate records, joined by “and”; a condition that tells them apart may be missing. Identical values can stand only once. Inconclusive results and toxic doses are left out.

System: L1210 leukemia ip in BDF1 mice, survival T/C
Assay: NCI In Vivo Anticancer Drug Screen. Data for tumor model L1210 Leukemia (intraperitoneal) in B6D2F1 (BDF1) mice
Conditions: endpoint: mean survival time, higher = longer survival
How it was run: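 Mice bearing the transplanted tumor received compound or vehicle. Survival of the treated group was divided by that of the vehicle-treated control group to give the ratio.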

[1] = dose: 100.0 mg/kg/injection, schedule: Q04DX002 (ip), vehicle: saline with Tween-80
[2] = dose: 100.0 mg/kg/injection, schedule: Q04DX003 (ip), vehicle: saline with Tween-80
[3] = dose: 200.0 mg/kg/injection, schedule: Q04DX002 (ip), vehicle: saline with Tween-80
[4] = dose: 200.0 mg/kg/injection, schedule: Q04DX003 (ip), vehicle: saline with Tween-80
[5] = dose: 400.0 mg/kg/injection, schedule: Q04DX002 (ip), vehicle: saline with Tween-80
[6] = dose: 400.0 mg/kg/injection, schedule: Q04DX003 (ip), vehicle: saline with Tween-80
[7] = dose: 50.0 mg/kg/injection, schedule: Q01DX009 (ip), vehicle: saline with Tween-80
[8] = dose: 100.0 mg/kg/injection, schedule: Q01DX009 (ip), vehicle: saline with Tween-80
[9] = dose: 200.0 mg/kg/injection, schedule: Q01DX009 (ip), vehicle: saline with Tween-80
[10] = dose: 25.0 mg/kg/injection, schedule: Q04DX003 (ip), vehicle: saline
[11] = dose: 100.0 mg/kg/injection, schedule: Q01DX005 (ip), vehicle: saline
[12] = dose: 100.0 mg/kg/injection, schedule: Q01DX009 (ip), vehicle: saline
[13] = dose: 200.0 mg/kg/injection, schedule: Q01DX005 (ip), vehicle: saline
[14] = dose: 200.0 mg/kg/injection, schedule: Q01DX009 (ip), vehicle: saline
[15] = dose: 400.0 mg/kg/injection, schedule: Q01DX009 (ip), vehicle: saline
[16] = dose: 100.0 mg/kg/injection, schedule: Q04DX003 (ip), vehicle: saline

COc1ccc(-c2sc(/N=C/c3ccc(N(C)CCC#N)cc3)c(C#N)c2C)cc1OC
T/C (dose: 100.0 mg/kg/injection, schedule: Q01DX001 (ip), vehicle: saline with Tween-80): 100 % of control
T/C [1]: 103 % of control and 118 % of control
T/C [2]: 102 % of control and 91 % of control
T/C (dose: 200.0 mg/kg/injection, schedule: Q01DX001 (ip), vehicle: saline with Tween-80): 91 % of control
T/C [3]: 93 % of control and 96 % of control
T/C [4]: 95 % of control and 98 % of control
T/C (dose: 400.0 mg/kg/injection, schedule: Q01DX001 (ip), vehicle: saline with Tween-80): 100 % of control
T/C [5]: 104 % of control and 106 % of control
T/C [6]: 102 % of control and 91 % of control

[NH-]C(CC(N)=O)C(=O)O.[NH-]C(CC(N)=O)C(=O)O.[Pd+2] (stereo not given)
T/C [7]: 93 % of control
T/C [8]: 101 % of control
T/C [1]: 93 % of control
T/C [9]: 108 % of control
T/C [3]: 97 % of control

CCCCN(CCCC)C(=O)CC(C)(O)c1ccccc1 (stereo not given)
T/C (dose: 50.0 mg/kg/injection, schedule: Q01DX001 (ip), vehicle: saline): 96 % of control
T/C (dose: 100.0 mg/kg/injection, schedule: Q01DX001 (ip), vehicle: saline): 107 % of control
T/C (dose: 200.0 mg/kg/injection, schedule: Q01DX001 (ip), vehicle: saline): 94 % of control
T/C (dose: 400.0 mg/kg/injection, schedule: Q01DX001 (ip), vehicle: saline): 96 % of control

Cc1cc[n+](CCCCCCCCCCO)cc1C
T/C (dose: 87.5 mg/kg/injection, schedule: Q01DX001 (ip), vehicle: saline): 97 % of control

ClCCCN1CCCCC1CCl (stereo not given)
T/C (dose: 3.12 mg/kg/injection, schedule: Q01DX009 (ip), vehicle: saline): 114 % of control
T/C (dose: 6.25 mg/kg/injection, schedule: Q01DX009 (ip), vehicle: saline): 114 % of control
T/C (dose: 6.25 mg/kg/injection, schedule: Q04DX003 (ip), vehicle: saline): 111 % of control
T/C (dose: 12.5 mg/kg/injection, schedule: Q04DX003 (ip), vehicle: saline): 111 % of control
T/C [10]: 150 % of control

CCOc1cc(/C=N/NC(=S)Nc2ccccc2)ccc1O
T/C (dose: 100.0 mg/kg/injection, schedule: Q01DX009 (ip), vehicle: Klucel (hydroxypropylcellulose) (HPC)): 98 % of control
T/C (dose: 200.0 mg/kg/injection, schedule: Q01DX009 (ip), vehicle: Klucel (hydroxypropylcellulose) (HPC)): 105 % of control
T/C (dose: 400.0 mg/kg/injection, schedule: Q01DX009 (ip), vehicle: Klucel (hydroxypropylcellulose) (HPC)): 94 % of control

Nc1cccc(CSc2nc3nc[nH]c3c(=O)[nH]2)c1
T/C (dose: 25.0 mg/kg/injection, schedule: Q01DX001 (ip), vehicle: Klucel (hydroxypropylcellulose) (HPC)): 102 % of control
T/C (dose: 50.0 mg/kg/injection, schedule: Q01DX001 (ip), vehicle: Klucel (hydroxypropylcellulose) (HPC)): 100 % of control
T/C (dose: 100.0 mg/kg/injection, schedule: Q01DX001 (ip), vehicle: Klucel (hydroxypropylcellulose) (HPC)): 102 % of control

COc1ccc(C2c3cc(OC)c(OC)cc3CC3C(=O)OCC32)cc1OC (stereo not given)
T/C (dose: 100.0 mg/kg/injection, schedule: Q04DX003 (ip), vehicle: Klucel (hydroxypropylcellulose) (HPC)): 98 % of control
T/C (dose: 200.0 mg/kg/injection, schedule: Q04DX003 (ip), vehicle: Klucel (hydroxypropylcellulose) (HPC)): 93 % of control
T/C (dose: 400.0 mg/kg/injection, schedule: Q04DX003 (ip), vehicle: Klucel (hydroxypropylcellulose) (HPC)): 93 % of control

CC(=O)OCC(=O)c1cc(C)n(C)c(=O)c1CN1C(=O)c2ccccc2C1=O
T/C [8]: 107 % of control
T/C [2]: 97 % of control
T/C [9]: 102 % of control
T/C [4]: 96 % of control
T/C (dose: 400.0 mg/kg/injection, schedule: Q01DX009 (ip), vehicle: saline with Tween-80): 108 % of control
T/C [6]: 96 % of control

COC(=O)/C=C/c1ccc([N+](=O)[O-])cc1
T/C [2]: 94 % of control and 96 % of control
T/C [4]: 96 % of control and 97 % of control
T/C [6]: 92 % of control

Cc1cc2nc3c(=O)[nH]c(=O)nc-3n(CCN(CCCl)CCCl)c2cc1C
T/C (dose: 42.0 mg/kg/injection, schedule: Q01DX015 (ip), vehicle: carboxymethylcellulose (CMC)): 115 % of control
T/C (dose: 72.0 mg/kg/injection, schedule: Q01DX015 (ip), vehicle: carboxymethylcellulose (CMC)): 96 % of control
T/C (dose: 120.0 mg/kg/injection, schedule: Q01DX015 (ip), vehicle: carboxymethylcellulose (CMC)): 86 % of control
T/C (dose: 400.0 mg/kg/injection, schedule: Q01DX001 (ip), vehicle: carboxymethylcellulose (CMC)): 152 % of control
T/C (dose: 600.0 mg/kg/injection, schedule: Q01DX001 (ip), vehicle: carboxymethylcellulose (CMC)): 103 % of control

COc1cccc2c1C1c3ccccc3C(O)CC1CC2O (stereo not given)
T/C (dose: 37.5 mg/kg/injection, schedule: Q01DX001 (ip), vehicle: Klucel (hydroxypropylcellulose) (HPC)): 89 % of control
T/C (dose: 75.0 mg/kg/injection, schedule: Q01DX001 (ip), vehicle: Klucel (hydroxypropylcellulose) (HPC)): 104 % of control
T/C (dose: 150.0 mg/kg/injection, schedule: Q01DX001 (ip), vehicle: Klucel (hydroxypropylcellulose) (HPC)): 91 % of control

COP1(=O)OCC2OC(n3cnc4c(N)ncnc43)C(O)C2O1 (stereo not given)
T/C [11]: 95 % of control and 103 % of control
T/C [12]: 89 % of control
T/C [13]: 89 % of control and 92 % of control
T/C [14]: 92 % of control
T/C (dose: 400.0 mg/kg/injection, schedule: Q01DX005 (ip), vehicle: saline): 92 % of control
T/C [15]: 98 % of control
T/C (dose: 600.0 mg/kg/injection, schedule: Q01DX005 (ip), vehicle: saline): 101 % of control

O=S(=O)(Cc1ccccc1)C(Br)c1ccccc1 (stereo not given)
T/C (dose: 100.0 mg/kg/injection, schedule: Q01DX001 (ip), vehicle: other): 101 % of control
T/C [16]: 108 % of control
T/C (dose: 200.0 mg/kg/injection, schedule: Q01DX001 (ip), vehicle: other): 96 % of control
T/C (dose: 200.0 mg/kg/injection, schedule: Q04DX003 (ip), vehicle: saline): 97 % of control
T/C (dose: 400.0 mg/kg/injection, schedule: Q01DX001 (ip), vehicle: other): 98 % of control
T/C (dose: 400.0 mg/kg/injection, schedule: Q04DX003 (ip), vehicle: saline): 87 % of control

CCOC(=S)SCC#CCSC(=S)OCC
T/C (dose: 100.0 mg/kg/injection, schedule: Q04DX002 (sc), vehicle: olive oil, sesame oil, peanut oil): 104 % of control
T/C (dose: 200.0 mg/kg/injection, schedule: Q04DX002 (sc), vehicle: olive oil, sesame oil, peanut oil): 114 % of control
T/C (dose: 400.0 mg/kg/injection, schedule: Q04DX002 (sc), vehicle: olive oil, sesame oil, peanut oil): 96 % of control

COCCNCC1OC(OC)C2OC(C)(C)OC12 (stereo not given)
T/C [11]: 104 % of control
T/C [13]: 102 % of control

NNC(=O)c1ccccn1
T/C (dose: 50.0 mg/kg/injection, schedule: Q01DX001 (ip), vehicle: water): 98 % of control
T/C (dose: 75.0 mg/kg/injection, schedule: Q01DX001 (ip), vehicle: water): 98 % of control
T/C (dose: 100.0 mg/kg/injection, schedule: Q01DX009 (ip), vehicle: water): 97 % of control
T/C (dose: 150.0 mg/kg/injection, schedule: Q01DX001 (ip), vehicle: water): 102 % of control

Cc1ccc(NC(=O)Oc2ccc3ccccc3c2)cc1NC(=O)Oc1ccc2ccccc2c1
T/C (dose: 100.0 mg/kg/injection, schedule: Q01DX009 (ip), vehicle: other): 91 % of control
T/C (dose: 200.0 mg/kg/injection, schedule: Q01DX009 (ip), vehicle: other): 93 % of control
T/C (dose: 400.0 mg/kg/injection, schedule: Q01DX009 (ip), vehicle: other): 91 % of control

ClCCOCC1CO1 (stereo not given)
T/C [10]: 92 % of control
T/C (dose: 50.0 mg/kg/injection, schedule: Q04DX003 (ip), vehicle: saline): 88 % of control
T/C [16]: 97 % of control

Cc1ccc(S(=O)(=O)NC(=O)Nc2cc(Cl)c(Cl)cc2C)cc1
T/C (dose: 50.0 mg/kg/injection, schedule: Q01DX009 (ip), vehicle: saline): 100 % of control and 108 % of control
T/C [8]: 94 % of control and 91 % of control
T/C [12]: 97 % of control and 88 % of control
T/C [1]: 100 % of control and 110 % of control
T/C [9]: 93 % of control
T/C [14]: 94 % of control and 86 % of control
T/C [3]: 93 % of control and 96 % of control
T/C [15]: 93 % of control
T/C [5]: 100 % of control and 104 % of control

COc1ccc(/C=C2\SC(=O)NC2=O)cc1
T/C (dose: 25.0 mg/kg/injection, schedule: Q01DX009 (ip), vehicle: saline with Tween-80): 91 % of control
T/C [7]: 104 % of control
T/C [8]: 100 % of control
